Results reported in patent US10308632B2, “Antifungal compounds and processes for making” (VPS-3, Inc., priority 2015, dated 2019).

What was measured:
Format in all cases: physicochemical
[1] = Gravimetric/dynamic vapor sorption (GVS/DVS) moisture sorption isotherm; settings: for GVS hysteresis: 0-90% RH range; for moisture uptake by GVS: at 90% RH; for GVS water uptake: over 0-90% RH range, 25° C.; for XRPD post GVS: sample re-analysed by XRPD after isotherm
Description: Gravimetric Vapor Sorption (GVS) isotherms were obtained using a SMS DVS Intrinsic moisture sorption analyser, controlled by DVS Intrinsic Control software v1.0.1.2 (or v 1.0.1.3). The sample temperature was maintained at 25° C. by the instrument controls. The humidity was controlled by mixing streams of dry and wet nitrogen, with a total flow rate of 200 mL/min The relative humidity was measured by a calibrated Rotronic probe (dynamic range of 1.0-100% RH), located near the sample. The weight change, (mass relaxation) of the sample as a function of % RH was constantly monitored by the microbalance (accuracy ±0.005 mg). Typically. 10-15 mg of sample was placed in a tared mesh stainless steel basket under ambient conditions. The sample was loaded and unloaded at 40% RH and 25° C. (typical room conditions). A moisture sorption isotherm was performed as outlined below (2 scans giving 1 complete cycle). The standard isotherm was performed at 25° C. at 10% RH intervals over a 0-90% RH range. Data analysis was undertaken in Microsoft Excel using DVS Analysis Suite v6.2 (or 6.1 or 6.0). [table] The sample was recovered after completion of the isotherm and re-analysed by XRPD.

[2] = XRPD stability after 7 days storage at elevated humidity
Description: X-Ray Powder Diffraction patterns were collected on a Bruker AXS C2 GADDS diffractometer using Cu Kα radiation (40 kV, 40 mA), automated XYZ stage, laser video microscope for auto-sample positioning and a HiStar 2-dimensional area detector. X-ray optics consists of a single Göbel multilayer mirror coupled with a pinhole collimator of 0.3 mm. A weekly performance check is carried out using a certified standard NIST 1976 Corundum (flat plate). The beam divergence, i.e. the effective size of the X-ray beam on the sample, was approximately 4 mm. A Θ-Θ continuous scan mode was employed with a sample—detector distance of 20 cm which gives an effective […] of 3.2°-29.7°. Typically the sample would be exposed to the X-ray beam for 120 seconds. The software used for data collection was GADDS for XP/2000 4.1.43 and the data were analysed and presented using Diffrac Plus EVA v13.0.0.2 or v15.0.0.0. Samples run under ambient conditions were prepared as flat plate specimens using powder as received without grinding. Approximately 1-2 mg of the sample was lightly pressed on a glass slide to obtain a flat surface. Samples run under non-ambient conditions were mounted on a silicon wafer with heat-conducting compound. The sample was then heated to the appropriate temperature at 30° C./min and subsequently held isothermally for 1 minute before data collection was initiated. X-Ray Powder Diffraction patterns were also collected on a Bruker D8 diffractometer using Cu Kα radiation (40 kV, 40 mA), θ-2θ goniometer, and divergence of V4 and receiving slits, a Ge monochromator and a Lynxeye detector. The instrument is performance checked using a certified Corundum standard (NIST 1976). The software used for data collection was Diffrac Plus XRD Commander v2.6.1 and the data were analysed and presented using Diffrac Plus EVA v15.0.0.0. Samples were run under ambient conditions as flat plate specimens using powder as received. The sample was gently packed into a cavity cut into polished, zero-background (510) silicon wafer. The sample was rotated in its own plane during analysis. The details of the data collection are: Angular range: 2 to 42° 2 θ; Step size: 0.05° 2θ; Collection time: 0.5 s/step.

[3] = Thermo-gravimetric analysis (TGA), decomposition onset; settings: heated at 10° C./min
Description: Thermo-gravimetric analysis (TGA) data were collected on a TA Instruments Discovery TGA, equipped with a 25 position auto-sampler. The instrument was temperature calibrated using certified alumel and nickel. Typically, 3-10 mg of each sample was loaded onto a pre-tared aluminium pan and heated at 10° C./min from ambient temperature to 350° C. A nitrogen purge at 25 mL/min was maintained over the sample. The instrument control and data analysis software was TRIOS v3.2.0.3877.

[4] = Competitive slurry experiments of Form 1 and Form 2 (thermodynamic stability); settings: temperature range investigated (5° C., 25° C., 50° C.)
Description: The melt of Form 1 of compound 5 was determined by DSC to be at 129.0° C. with an enthalpy of −46 J/g. A melt endotherm was not determined for Form 2 as it transforms to Form 1 upon heating at different rates. […] These experiments were performed in IPA, ethanol and toluene. To conduct these experiments a solid mixture of Forms 1 and 2 (<18 mg per sample) was suspended in the corresponding saturated solution of compound 5 and stirred at the desired temperature. Saturated solutions of compound 5 were prepared at 50° C. by dissolving 40 mg, 60 mg and 200 mg of sample in 1.4 mL of IPA, 0.8 mL of ethanol and 0.8 mL of toluene, respectively. The slurries were filtered, air-dried and analyzed by XRPD after stirring for up to 10 days at the desired temperature. […] All the experiments except for that performed in IPA at 5° C. gave pure Form 1.

[5] = Variable temperature XRPD (VT-XRPD), polymorph conversion; settings: upon heating
Description: X-Ray Powder Diffraction patterns were collected on a Bruker AXS C2 GADDS diffractometer using Cu Kα radiation (40 kV, 40 mA), automated XYZ stage, laser video microscope for auto-sample positioning and a HiStar 2-dimensional area detector. X-ray optics consists of a single Göbel multilayer mirror coupled with a pinhole collimator of 0.3 mm. A weekly performance check is carried out using a certified standard NIST 1976 Corundum (flat plate). The beam divergence, i.e. the effective size of the X-ray beam on the sample, was approximately 4 mm. A Θ-Θ continuous scan mode was employed with a sample—detector distance of 20 cm which gives an effective […] of 3.2°-29.7°. Typically the sample would be exposed to the X-ray beam for 120 seconds. The software used for data collection was GADDS for XP/2000 4.1.43 and the data were analysed and presented using Diffrac Plus EVA v13.0.0.2 or v15.0.0.0. Samples run under ambient conditions were prepared as flat plate specimens using powder as received without grinding. Approximately 1-2 mg of the sample was lightly pressed on a glass slide to obtain a flat surface. Samples run under non-ambient conditions were mounted on a silicon wafer with heat-conducting compound. The sample was then heated to the appropriate temperature at 30° C./min and subsequently held isothermally for 1 minute before data collection was initiated. […]

SMILES	GVS hysteresis [1]	moisture uptake by GVS [1] [%]	GVS water uptake [1]	XRPD post GVS [1]	XRPD stability post 7 days ([2]; 25° C. & 96% RH)	XRPD stability post 7 days ([2]; 40° C. & 75% RH)	stability after 7 days storage at elevated humidity conditions [2]	TGA decomposition onset [3]	thermodynamic stability of the pair Form 1/Form 2 [4]	VT-XRPD: conversion to Form 1 starts at [5]
N#Cc1ccc(COc2ccc(C#Cc3ccc(C(F)(F)[C@](O)(Cn4cnnn4)c4ccc(F)cc4F)nc3)cc2)cc1 [Compound 14]	(no hysteresis observed)	~1.6	ca. 1.6% water uptake over	unchanged	Unchanged by XRPD	Unchanged by XRPD	stable	Decomposition onset at ~300 °C	–	–
N#Cc1ccc(COc2ccc(C#Cc3ccc(C(F)(F)[C@](O)(Cn4cnnn4)c4ccc(F)cc4F)nc3)cc2)cc1 [Compound 5 (Anhydrous Form 1)]	(slight hysteresis observed)	~1.3	ca. 1.3% water uptake over	unchanged	Unchanged by XRPD	Unchanged by XRPD	stable	Decomposition onset at ~200 °C	thermodynamically stable form	–
N#Cc1ccc(COc2ccc(C#Cc3ccc(C(F)(F)[C@](O)(Cn4cnnn4)c4ccc(F)cc4F)nc3)cc2)cc1 [Compound 5 (Anhydrous Form 2)]	(no hysteresis observed)	~0.7	ca. 0.7% water uptake over	unchanged	Unchanged by XRPD	Unchanged by XRPD	remained stable	Decomposition onset at ~200 °C	–	at 105 °C
